One compound from article PMC9200067 (Clinical and Translational Science, 2022) can be followed below.

What all share (assay): competitive radioligand binding, recombinant cells
Common to all, as to assay type: cell-based

In one assay the target is 5-HT4 (Homo sapiens, UniProt Q13639).
In a further assay the target is σ1 (Homo sapiens, UniProt Q99720).
A further assay deals with T1, α1B (Homo sapiens, UniProt P35368).
T1 sequence (P35368 1-520): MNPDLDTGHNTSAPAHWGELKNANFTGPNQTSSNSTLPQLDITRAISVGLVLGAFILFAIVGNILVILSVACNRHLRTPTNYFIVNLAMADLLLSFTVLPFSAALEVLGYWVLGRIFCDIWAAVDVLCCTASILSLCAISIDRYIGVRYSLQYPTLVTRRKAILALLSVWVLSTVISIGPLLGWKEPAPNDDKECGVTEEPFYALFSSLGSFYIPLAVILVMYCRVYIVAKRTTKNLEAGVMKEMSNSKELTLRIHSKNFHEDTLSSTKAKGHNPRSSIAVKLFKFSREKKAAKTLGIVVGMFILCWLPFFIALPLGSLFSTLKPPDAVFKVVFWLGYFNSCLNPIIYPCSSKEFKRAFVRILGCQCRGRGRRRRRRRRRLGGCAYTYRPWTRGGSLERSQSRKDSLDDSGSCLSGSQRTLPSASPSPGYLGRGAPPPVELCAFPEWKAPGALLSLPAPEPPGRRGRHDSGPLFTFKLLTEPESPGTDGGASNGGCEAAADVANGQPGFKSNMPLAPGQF

The target in the next assay is T2, α1D (Homo sapiens, UniProt P25100).
T2 sequence (P25100 1-572): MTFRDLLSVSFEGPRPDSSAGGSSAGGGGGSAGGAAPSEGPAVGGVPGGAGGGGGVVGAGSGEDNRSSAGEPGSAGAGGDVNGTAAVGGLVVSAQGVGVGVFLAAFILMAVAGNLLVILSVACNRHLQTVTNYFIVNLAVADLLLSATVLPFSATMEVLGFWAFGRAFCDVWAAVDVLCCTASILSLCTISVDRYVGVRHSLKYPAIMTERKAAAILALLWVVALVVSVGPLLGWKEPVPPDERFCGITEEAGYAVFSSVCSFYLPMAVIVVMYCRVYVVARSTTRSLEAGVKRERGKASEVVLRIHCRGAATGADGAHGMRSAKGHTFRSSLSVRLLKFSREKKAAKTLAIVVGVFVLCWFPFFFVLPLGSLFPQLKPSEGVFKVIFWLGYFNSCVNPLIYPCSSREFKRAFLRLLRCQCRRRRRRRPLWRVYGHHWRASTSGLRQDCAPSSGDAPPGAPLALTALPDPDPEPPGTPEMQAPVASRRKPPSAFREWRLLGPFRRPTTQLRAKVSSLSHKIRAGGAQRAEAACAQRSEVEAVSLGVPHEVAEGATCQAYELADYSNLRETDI

Chain of σ1 (Q99720 whole entry): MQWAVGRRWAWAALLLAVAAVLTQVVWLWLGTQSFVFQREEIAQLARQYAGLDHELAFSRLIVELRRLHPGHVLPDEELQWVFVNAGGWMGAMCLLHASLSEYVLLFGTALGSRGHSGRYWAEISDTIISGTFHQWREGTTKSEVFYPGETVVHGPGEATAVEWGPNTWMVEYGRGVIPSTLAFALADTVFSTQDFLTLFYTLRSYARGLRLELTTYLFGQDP
Chain of 5-HT4 (Q13639 whole entry): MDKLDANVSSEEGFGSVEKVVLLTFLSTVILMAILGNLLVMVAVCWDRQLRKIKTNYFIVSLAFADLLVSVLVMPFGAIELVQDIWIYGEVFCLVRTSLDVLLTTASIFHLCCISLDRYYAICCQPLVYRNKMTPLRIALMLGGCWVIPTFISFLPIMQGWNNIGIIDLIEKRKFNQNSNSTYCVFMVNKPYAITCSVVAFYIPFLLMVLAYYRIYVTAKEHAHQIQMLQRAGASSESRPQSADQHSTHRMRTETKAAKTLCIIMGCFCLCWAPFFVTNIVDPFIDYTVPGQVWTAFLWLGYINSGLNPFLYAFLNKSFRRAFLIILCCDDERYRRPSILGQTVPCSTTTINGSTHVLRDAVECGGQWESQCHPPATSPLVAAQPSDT

`O=c1n(CCCN2CCN(c3cccc(Cl)c3)CC2)nc2ccccn12` [trazodone]: the Ki on 5-HT4 came out at 10000 nM; on σ1 it was 3980 nM; on α1B, 15 nM; at α1D, 27 nM.

A word on the Ki: it is the equilibrium dissociation constant of an inhibitor or competing ligand from its target.
